Source: patent publication US10000534B2, “Peptide having osteoblast proliferation activity and periodontal ligament fibroblast proliferation activity, and use of same” (CAREGEN CO., LTD., priority 2014, dated 2018)
Ends that are not written are not given here.

What was measured:
[1] = tested on: human periodontal ligament fibroblasts; experiment: SRB assay of human periodontal ligament fibroblast growth; type: cell-based; settings: peptide 0.05-10 ug/ml, 72 hours, serum-free; FIGS. 6a and 6b
Procedure: In order to investigate the effects of the peptides of SEQ ID NO: 1 and SEQ ID NO: 2 on the periodontium, the human periodontal ligament fibroblast promoting effects were analyzed. The periodontal ligament fibroblasts were placed in a 48-well plate to 1×10^3 cells, and then cultured for 24 hours under conditions of 37° C. and 5% CO2. After 24 hours, the exchange with the medium not containing serum was conducted, followed by culture for 6 hours. Thereafter, the resulting product was treated with the peptides at concentrations of 0.05-10 ug/ml and BMP-2 and IGF-1 used as positive controls at a concentration of 0.2 ug/ml, followed by culture for 72 hours. After the completion of the culture, the culture supernatant was removed and the cells were immobilized using ethanol. After the cell immobilization was ended, the cells were washed three times with phosphate buffer saline (PBS). After the wash solution was removed, the cells were treated with colorimetric SRB solution, and sufficiently washed with 1% acetic acid. Then, the cells were observed using a microscope to observe the conditions of living cells. The absorbance for the solution decolorized with 20 mM tris was read at UV light of 560 nm, thereby measuring the survival conditions of cells.

MC3T3-E1 cells [2] = experiment: Western blotting of pSmad1/5/8 in MC3T3-E1 cells; type: cell-based; settings: MC3T3-E1, peptide 10 ug/ml, 15 and 30 minutes, FIGS. 4a and 4b
Procedure: In order to investigate whether pSmad1/5/8, which is a signal involved in the promotion of osteogenic differentiation, was activated by the present peptides, MC3T3-E1 cells were placed in a 6-well plate at 2×10^5 cells, and then cultured for 24 hours under the conditions of 37° C. and 5% CO2. After 24 hours, the medium was exchanged with a medium without serum, followed by culture for 24 hours. Then, the resulting product was treated with the respective peptides at 10 ug/ml, and BMP2 used at a positive control at 50 ng/ml. After 15 minutes and 30 minutes, the washing was conducted with PBS, and then a lysis buffer was added to obtain proteins through lysis, followed by western blotting.

[3] = tested on: periodontal ligament fibroblasts; experiment: RT-PCR of COL1A1 and DSPP mRNA in periodontal ligament fibroblasts; type: cell-based, human; settings: peptide 1 and 10 ug/ml, 72 hours, FIGS. 8a and 8b
Procedure: In order to investigate the periodontal ligament fibroblast activity promoting effects by the peptides of SEQ ID NO: 1 and SEQ ID NO: 2, the mRNA expression of related genes was analyzed using RT-PCR. The periodontal ligament fibroblasts were placed in a 24-well plate to 1.5×10^4 cells, and then cultured for 24 hours under conditions of 37° C. and 5% CO2. After 24 hours, the exchange with the medium not containing serum was conducted, followed by culture for 24 hours. Thereafter, the resulting product was treated with the peptides at concentrations of 1 and 10 ug/ml and BMP-2 and IGF-1 used as positive controls at a concentration of 0.2 ug/ml, followed by culture for 72 hours. After the completion of the culture, the washing was conducted with PBS, and then RNA was isolated using Easy blue (Intron). cDNA was synthesized using 1 ug of RNA and RT premixture (Intron), and PCR was conducted using PCR premixture (Bioneer), and then the resulting product was loaded on agarose gel to investigate the mRNA level of each marker.

[4] = tested on: human periodontal ligament fibroblasts; experiment: Western blotting of p-PI3K and p-Akt in periodontal ligament fibroblasts; type: cell-based; settings: peptide 10 ug/ml, 5-15 minutes, FIGS. 7a and 7b
Procedure: In order to investigate the human periodontal ligament fibroblast growth promoting effects by the peptides of SEQ ID NO: 1 and SEQ ID NO: 2, the phosphorylation degrees of related signaling molecules were analyzed using western blotting. The periodontal ligament fibroblasts were placed in a 6-well plate to 5×10^5 cells, and then cultured for 24 hours under conditions of 37° C. and 5% CO2. Thereafter, the resulting product was treated with the peptides at a concentration of 10 ug/ml and bFGF used as a positive control at a concentration of 0.2 ug/ml. Then, the cells were collected by culture times of 5-15 minutes, and the total proteins were isolated, and then western blotting was conducted with respect to p-PI3K and p-Akt.

MC3T3-E1 cells [5] = experiment: RT-PCR of osteogenic differentiation-related genes (BSP, COL1A1) in MC3T3-E1 cells; type: cell-based; settings: MC3T3-E1, peptide 10 ug/ml and 50 ug/ml, 2 days; FIGS. 3a and 3b
Procedure: In order to investigate the mRNA expression levels of osteogenic differentiation-related genes, bone sialoprotein (BSP) and collagen type I alpha 1 (COL1A1) by the sequence peptides synthesized in synthesis example 1, MC3T3-E1 cells were placed in a 6-well plate to 2×10^5 cells, and then cultured for 24 hours under conditions of 37° C. and 5% CO2. After 24 hours, the medium containing FBS 10% was treated with the respective peptides at 10 ug/ml and 50 ug/ml, and BMP2 used at a positive control at 100 ng/ml. After 2 days, the washing was conducted with PBS, and then RNA was isolated using Easy blue (Intron). cDNA was synthesized using 1 ug of RNA and RT premixture (Intron), and PCR was conducted using PCR premixture (Bioneer), and then the resulting product was loaded on agarose gel to investigate the mRNA expression degree of each gene.

C2C12 cells = experiment: MTT assay of cell proliferation in C2C12 cells; type: cell-based; settings: peptide 10 μg/ml, 72 hours, serum-free, FIGS. 1a and 1b
Procedure: In order to analyze the BMP2-like action of the sequence peptides synthesized in synthesis example 1, MTT assay was conducted using C2C12 cells, which are a myoblast cell line, to investigate the proliferation promoting effect.
The C2C12 cells were cultured in Dulbecco's modified Eagle's medium (DMEM, Gibco) supplemented with 10% fetal bovine serum (FBS, Sigma) using a 500 ml-flask for tissue culture. The cultured cell lines were carefully detached from the bottom of the culture container using a 1% trypsin solution, followed by centrifugation, thereby obtaining only cell precipitates. The cell precipitates were re-suspended in DMEM culture medium supplemented without FBS, and then added to a 96-well plate for tissue culture at 1×10^3 cells per each well, followed by culture under conditions of 37° C. and 5% CO2 for 24 hours. After 24 hours, the medium was changed with the same culture liquid completely excluding serum, and then the blank sample and each of the synthetic peptide were dissolved sterile in distilled water, and the mixture was cultured at a concentration of 10 μg/ml for 72 hours under the same conditions. The MTT sample was added to the culture-completed well, and after 4 hour, the formed formazan was dissolved in DMSO, and then the absorbance was measured at 560 nm to determine cell proliferation.

MC3T3-E1 cells [6] = experiment: Alkaline phosphatase (ALP) staining of MC3T3-E1 cells (osteoblast differentiation); type: cell-based; settings: MC3T3-E1, peptide 10 ug/ml and 50 ug/ml, 13 days; FIGS. 2a and 2b
Procedure: In order to analyze the BMP2-like action of the sequence peptides synthesized in synthesis example 1, the osteoblast differentiation promoting effect was investigated through alkaline phosphatase (ALP) staining of MC3T3-E1 cells, which are a pre-osteoblast cell line. The MC3T3-E1 cells were placed in a 24-well plate to 3×10^4 cells, and then cultured for 24 hours under conditions of 37° C. and 5% CO2. After 24 hours, the alpha-MEM medium containing 10% FBS and 50 ug/ml ascorbic acid+100 mM b-glycerophosphate was treated with the synthetic peptides at concentrations of 10 ug/ml and 50 ug/ml, and then the culture was conducted for 13 days while the medium was exchanged every three days. The culture-completed plate well was washed two times with PBS, and then the cells were immobilized with an immobilization buffer, in which acetone, 37% formaldehyde, and citric acid solution were mixed, for 30 seconds. The following staining was carried out using the leukocyte alkaline phosphatase staining kit (SIGMA).
The cells were treated for 2 minutes with an FBB-alkaline solution and a sodium nitrite solution mixed at 1:1, and then treated with a buffer composed of distilled water and naphthol AS-BI alkaline solution, followed by color development in an incubator at 37° C. for 1 hour.

Balb/c mouse = experiment: Collagen sponge transplant in Balb/c mouse, H&E staining of osteocytes permeation and differentiation; type: in vivo; settings: collagen sponge with 100 ug peptide transplanted into the back, 2 weeks, FIG. 5
Procedure: A collagen sponge with a size of 0.5 mm×0.5 mm was wetted with 100 ug of the peptide of SEQ ID NO: 1, transplanted into the back of the Balb/c mouse, and then left for 2 weeks. Thereafter, the collagen sponge was extracted, and then made into a paraffin block, and then the degree of osteocytes permeation and differentiation in the collagen sponge were measured through H&E staining (FIG. 5).

Sequence	periodontal ligament fibroblast cell growth (SRB, absorbance 560 nm) [1]	phosphorylation of Smad1/5/8 (MC3T3-E1 cells [2])	mRNA expression level of alpha-1 type I collagen (COL1A1) [3]	mRNA expression level of dentin sialophosphoprotein (DSPP) [3]	phosphorylation level of Akt [4]	phosphorylation level of PI3K [4]	mRNA expression levels of osteogenic differentiation genes (BSP, COL1A1) (MC3T3-E1 cells [5])	growth of osteoblasts (cell proliferation, MTT, absorbance at 560 nm) (C2C12 cells)	ALP expression (ALP staining) (MC3T3-E1 cells [6])	bone formation promoting effect (osteocytes permeation, proliferation and differentiation in collagen sponge, H&E) (Balb/c mouse)
FDMGAYKSSK [SEQ ID NO: 2]	cell growth increase in a dose-dependent manner	promotion of the phosphorylation of Smad1/5/8	increases in the mRNA expression levels	increases in the mRNA expression levels	increases in the phosphorylation levels	increases in the phosphorylation levels	increases in the mRNA expression levels	significantly promoted the growth of osteoblasts	increase in the ALP expression	–
RSLNLRDSQKS [SEQ ID NO: 1]	cell growth increase in a dose-dependent manner	promotion of the phosphorylation of Smad1/5/8	increases in the mRNA expression levels	increases in the mRNA expression levels	increases in the phosphorylation levels	increases in the phosphorylation levels	increases in the mRNA expression levels	significantly promoted the growth of osteoblasts	increase in the ALP expression	bone formation promoting effect
